For one experiment, the target named is T1, human 11β-HSD1 (Homo sapiens, UniProt P28845).
T1 construct: 100 ug/ml human/mouse liver microsomes; from tissue; host or cells: human liver microsomes
The experiment in a line: Enzyme activity analysis on human 11β-HSD1 (HTRF cortisol, liver microsomes). The class given is biochemical. Conditions: first value of cell. The essentials: (§1)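 Cortisol generated by mouse or human liver microsome 11β-HSD1 during 2 h at 37° C., measured by HTRF competition (cryptate anti-cortisol antibody, d2-cortisol, 2 h room temperature) against a cortisol standard curve. IC50 from percent inhibition versus no-compound control.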
In general terms: Time-resolved FRET reads energy transfer from a long-lived donor to a nearby acceptor.

A further experiment deals with T2, mouse 11β-HSD1 (Mus musculus, UniProt P50172).
T2 construct: 100 ug/ml human/mouse liver microsomes; from tissue; host or cells: mouse liver microsomes
T2 sequence (P50172 whole entry): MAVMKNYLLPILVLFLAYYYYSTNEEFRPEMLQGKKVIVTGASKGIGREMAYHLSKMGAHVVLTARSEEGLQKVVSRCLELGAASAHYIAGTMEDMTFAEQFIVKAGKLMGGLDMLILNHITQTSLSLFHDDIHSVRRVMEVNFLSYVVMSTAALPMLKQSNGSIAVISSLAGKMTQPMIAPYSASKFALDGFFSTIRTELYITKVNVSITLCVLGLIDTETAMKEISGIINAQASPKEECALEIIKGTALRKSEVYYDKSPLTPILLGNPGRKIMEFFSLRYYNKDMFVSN
The experiment in a line: Enzyme activity analysis on mouse 11β-HSD1 (HTRF cortisol, liver microsomes). To be noted: second value of cell. The class given is biochemical. The essentials: as §1

Drawing on patent publication US9073830B2 (Hyundai Pharm Co., Ltd., priority 2011, dated 2015), this text covers IC50 for 31 compounds.

Structures are written as SMILES.

T1 sequence (P28845 whole entry): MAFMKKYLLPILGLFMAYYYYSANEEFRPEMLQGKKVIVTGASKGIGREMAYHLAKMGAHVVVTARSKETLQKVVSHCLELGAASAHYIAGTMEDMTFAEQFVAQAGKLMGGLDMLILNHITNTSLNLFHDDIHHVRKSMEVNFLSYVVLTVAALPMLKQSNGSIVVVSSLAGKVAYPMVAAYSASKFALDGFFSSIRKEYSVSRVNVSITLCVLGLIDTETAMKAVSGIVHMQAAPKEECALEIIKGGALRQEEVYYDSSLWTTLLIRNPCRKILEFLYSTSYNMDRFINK

Usually IC50 stands for the midpoint of a concentration-inhibition curve. Regarding `NC(=O)C12CC3CC(C1)C(NC(=O)C1(NS(=O)(=O)c4cccc(Cl)c4F)CCC1)C(C3)C2` (centres unmarked) [compound 159, N-4-(1-(2-fluoro-3-chlorophenylsulfonamido)cyclobutanecarboxyamido)adamantane-1-carboxyamide], the half-maximal inhibitory concentration (IC50) against human 11β-HSD1 was 0.096 µM; on mouse 11β-HSD1, 0.126 µM.

`NC(=O)C12CC3CC(C1)C(NC(=O)C1(NS(=O)(=O)c4cccc(Cl)c4Cl)CC1)C(C3)C2` (centres unmarked) [compound 136, N-4-(1-(2,3-dichlorophenylsulfonamido)cyclopropanecarboxyamido)adamantane-1-carboxyamide]: the concentration for half-maximal inhibition (IC50) against human 11β-HSD1 was 0.009 µM; at mouse 11β-HSD1, 0.028 µM.

`CN(C(C)(C)C(=O)NC1C2CC3CC1CC(O)(C3)C2)S(=O)(=O)c1ccccc1Br` (centres unmarked) [compound 206, N-(5-hydroxyadamantane-2-yl)-2-(2-bromo-N-methylphenylsulfonamido)-2-methylpropanamide]: the figures for the half-inhibitory concentration (IC50) on human 11β-HSD1 and against mouse 11β-HSD1 were 0.005 µM and 0.041 µM, respectively.

Regarding `NC(=O)C12CC3CC(C1)C(NC(=O)C1(NS(=O)(=O)c4c(Cl)cccc4Cl)CC1)C(C3)C2` (centres unmarked) [compound 134, N-4-(1-(2,6-dichlorophenylsulfonamido)cyclopropanecarboxyamido)adamantane-1-carboxyamide], the IC50 on human 11β-HSD1 and on mouse 11β-HSD1 was 0.021 µM in each case.

Regarding `CC(C)(NS(=O)(=O)c1cccc([N+](=O)[O-])c1)C(=O)NC1C2CC3CC1CC(O)(C3)C2` (centres unmarked) [compound 77, N-(5-hydroxyadamantane-2-yl)-2-methyl-2-(3-nitrophenylsulfonamido)propanamide], the IC50 is 0.492 µM at human 11β-HSD1 and 0.575 µM on mouse 11β-HSD1.

For the compound `CC(C)(NS(=O)(=O)c1ccc(F)c(Cl)c1)C(=O)NC1C2CC3CC(C2)CC1C3` (centres unmarked) [compound 54, N-(adamantane-2-yl)-2-methyl-2-(4-fluoro-3-chlorophenylsulfonamido)propanamide], the IC50 against human 11β-HSD1 was 0.223 µM; at mouse 11β-HSD1, 0.904 µM.

For `NC(=O)C12CC3CC(C1)C(NC(=O)C1(NS(=O)(=O)c4ccc(OC(F)F)cc4)CCC1)C(C3)C2` (centres unmarked) [compound 166, N-4-(1-(4-(difluoromethoxy)phenylsulfonamido)cyclobutanecarboxyamido)adamantane-1-carboxyamide], the 50% inhibitory concentration (IC50) on human 11β-HSD1 is 0.724 µM; at mouse 11β-HSD1, 0.559 µM.

For `NC(=O)C12CC3CC(C1)C(NC(=O)C1(NS(=O)(=O)c4ccccc4Br)CCCCC1)C(C3)C2` (centres unmarked) [compound 178, N-4-(1-(2-bromophenylsulfonamido)cyclohexanecarboxyamido)adamantane-1-carboxyamide], the figures for the IC50 on human 11β-HSD1 and against mouse 11β-HSD1 were 0.009 µM and 0.048 µM, respectively.

Turning to `CC(C)(NS(=O)(=O)c1ccc(C(=O)NC2C3CC4CC(C3)CC2C4)cc1Cl)C(=O)NC1C2CC3CC(C2)CC1C3` (centres unmarked) [compound 44], the values for the half-inhibitory concentration (IC50) against human 11β-HSD1 and at mouse 11β-HSD1 were 0.481 µM and 0.167 µM, respectively.

Consider `CC(C)(NS(=O)(=O)c1cccc([N+](=O)[O-])c1)C(=O)NC1C2CC3CC1CC(C(N)=O)(C3)C2` (centres unmarked) [compound 107, N-4-(2-(3-nitrophenylsulfonamido)-2-methylpropanamido)adamantane-1-carboxyamide], for which the IC50 is 0.178 µM on human 11β-HSD1 and 0.563 µM against mouse 11β-HSD1.

With `Cc1ccc(S(=O)(=O)NC2(C(=O)NC3C4CC5CC3CC(C(N)=O)(C5)C4)CCC2)cc1[N+](=O)[O-]` (centres unmarked) [compound 150, N-4-(1-(3-nitro-4-methylphenylsulfonamido)cyclobutanecarboxyamido)adamantane-1-carboxyamide], the IC50 came out at 0.639 µM against human 11β-HSD1 and 0.187 µM at mouse 11β-HSD1.

For `CC(C)(NS(=O)(=O)c1ccccc1Br)C(=O)NC1C2CC3CC(C2)CC1C3` (centres unmarked) [compound 12, N-(adamantane-2-yl)-2-methyl-2-(2-bromophenylsulfonamido)propanamide], the figures for the half-inhibitory concentration (IC50) on human 11β-HSD1 and on mouse 11β-HSD1 were 0.02 µM and 0.051 µM, respectively.

With `CCN(C(C)(C)C(=O)NC1C2CC3CC1CC(C(N)=O)(C3)C2)S(=O)(=O)c1c(F)cccc1F` (centres unmarked) [compound 213, N-4-(2-(2,6-difluoro-N-ethylphenylsulfonamido)-2-methylpropanamido)adamantane-1-carboxyamide], the IC50 against human 11β-HSD1 worked out at 0.005 µM; against mouse 11β-HSD1, 0.235 µM.

In the case of `Cc1ccc([N+](=O)[O-])cc1S(=O)(=O)NC(C)(C)C(=O)NC1C2CC3CC1CC(O)(C3)C2` (centres unmarked) [compound 76, N-(5-hydroxyadamantane-2-yl)-2-methyl-2-(2-methyl-5-nitrophenylsulfonamido)propanamide], the concentration for half-maximal inhibition (IC50) at human 11β-HSD1 is 0.146 µM; against mouse 11β-HSD1, 2.08 µM.

On to `NC(=O)C12CC3CC(C1)C(NC(=O)C1(NS(=O)(=O)c4ccccc4Cl)CCC1)C(C3)C2` (centres unmarked) [compound 152, N-4-(1-(2-chlorophenylsulfonamido)cyclobutanecarboxyamido)adamantane-1-carboxyamide], for which the figures for the IC50 against human 11β-HSD1 and against mouse 11β-HSD1 were 0.021 µM and 0.099 µM, respectively.

Turning to `Cc1c(Cl)cccc1S(=O)(=O)NC1(C(=O)NC2C3CC4CC2CC(C(N)=O)(C4)C3)CCCCC1` (centres unmarked) [compound 180, N-4-(1-(3-chloro-2-methylphenylsulfonamido)cyclohexanecarboxyamido)adamantane-1-carboxyamide], the results for the half-inhibitory concentration (IC50) against human 11β-HSD1 and on mouse 11β-HSD1 were 0.023 µM and 0.328 µM, respectively.

Regarding `CC(C)(NS(=O)(=O)c1ccc(Cl)c(Cl)c1Cl)C(=O)NC1C2CC3CC(C2)CC1C3` (centres unmarked) [compound 51, N-(adamantane-2-yl)-2-methyl-2-(2,3,4-trichlorophenylsulfonamido)propanamide], the half-maximal inhibitory concentration (IC50) is 0.183 µM against human 11β-HSD1 and 1.3 µM on mouse 11β-HSD1.

`COc1cccc(S(=O)(=O)NC(C)(C)C(=O)NC2C3CC4CC(C3)CC2C4)c1` (centres unmarked) [compound 29, N-(adamantane-2-yl)-2-methyl-2-(3-methoxyphenylsulfonamido)propanamide]: the 50% inhibitory concentration (IC50) was 0.216 µM against human 11β-HSD1 and 0.329 µM on mouse 11β-HSD1.

In the case of `Cc1ccc([N+](=O)[O-])cc1S(=O)(=O)NC(C)(C)C(=O)NC1C2CC3CC(C2)CC1C3` (centres unmarked) [compound 40, N-(adamantane-2-yl)-2-methyl-2-(5-nitro-2-methylphenylsulfonamido)propanamide], the 50% inhibitory concentration (IC50) at human 11β-HSD1 amounted to 0.098 µM; against mouse 11β-HSD1, 1.85 µM.

For `CC(C)(NS(=O)(=O)c1cccc(Cl)c1Cl)C(=O)NC1C2CC3CC1CC(O)(C3)C2` (centres unmarked) [compound 73, N-(5-hydroxyadamantane-2-yl)-2-methyl-2-(2,3-dichlorophenylsulfonamido)propanamide], the IC50 turned out to be 0.017 µM on human 11β-HSD1 and 0.042 µM on mouse 11β-HSD1.

Consider `CN(C(C)(C)C(=O)NC1C2CC3CC1CC(C(N)=O)(C3)C2)S(=O)(=O)c1c(Cl)cccc1Cl` (centres unmarked) [compound 192, N-4-(2-(2,6-dichloro-N-methylphenylsulfonamido)-2-methylpropanamido)adamantane-1-carboxyamide], for which the IC50 amounted to 0.008 µM against human 11β-HSD1 and 0.002 µM on mouse 11β-HSD1.

Consider `Cc1cc(C)cc(S(=O)(=O)NC(C)(C)C(=O)NC2C3CC4CC2CC(C(N)=O)(C4)C3)c1` (centres unmarked) [compound 91, N-4-(2-(3,5-dimethylphenylsulfonamido)-2-methylpropanamido)adamantane-1-carboxyamide], for which the IC50 was determined as 0.016 µM against human 11β-HSD1 and 0.107 µM on mouse 11β-HSD1.

`NC(=O)C12CC3CC(C1)C(NC(=O)C1(NS(=O)(=O)c4c(Cl)cccc4Cl)CCCCC1)C(C3)C2` (centres unmarked) [compound 186, N-4-(1-(2,6-dichlorophenylsulfonamido)cyclohexanecarboxyamido)adamantane-1-carboxyamide]: the figures for the concentration for half-maximal inhibition (IC50) against human 11β-HSD1 and at mouse 11β-HSD1 were 0.012 µM and 0.005 µM, respectively.

For the compound `CC(C)(NS(=O)(=O)c1ccc(F)cc1F)C(=O)NC1C2CC3CC(C2)CC1C3` (centres unmarked) [compound 58, N-(adamantane-2-yl)-2-methyl-2-(2,4-difluorophenylsulfonamido)propanamide], the half-inhibitory concentration (IC50) at human 11β-HSD1 stood at 0.199 µM; against mouse 11β-HSD1, 0.621 µM.

Take `Cc1cccc(S(=O)(=O)NC(C)(C)C(=O)NC2C3CC4CC(C3)CC2C4)c1` (centres unmarked) [compound 28, N-(adamantane-2-yl)-2-methyl-2-(3-methylphenylsulfonamido)propanamide]: the IC50 at human 11β-HSD1 was determined as 0.133 µM; against mouse 11β-HSD1, 0.437 µM.

As for `CC(C)(NS(=O)(=O)c1ccccc1)C(=O)NC1C2CC3CC(C2)CC1C3` (centres unmarked) [compound 1, N-(adamantane-2-yl)-2-methyl-2-(phenylsulfonamido)propanamide], the 50% inhibitory concentration (IC50) turned out to be 0.04 µM against human 11β-HSD1 and 0.19 µM against mouse 11β-HSD1.

On to `COc1ccc(S(=O)(=O)NC(C)(C)C(=O)NC2C3CC4CC2CC(C(N)=O)(C4)C3)cc1F` (centres unmarked) [compound 115, N-4-(2-(3-fluoro-4-methoxyphenylsulfonamido)-2-methylpropanamido)adamantane-1-carboxyamide], for which the IC50 came to 0.235 µM against human 11β-HSD1 and 0.456 µM on mouse 11β-HSD1.

In the case of `NC(=O)C12CC3CC(C1)C(NC(=O)C1(NS(=O)(=O)c4ccccc4Br)CCC1)C(C3)C2` (centres unmarked) [compound 155, N-4-(1-(2-bromophenylsulfonamido)cyclobutanecarboxyamido)adamantane-1-carboxyamide], the IC50 is 0.024 µM on human 11β-HSD1 and 0.145 µM on mouse 11β-HSD1.

With `NC(=O)C12CC3CC(C1)C(NC(=O)C1(NS(=O)(=O)c4ccccc4[N+](=O)[O-])CCCC1)C(C3)C2` (centres unmarked) [compound 173, N-4-(1-(2-nitrophenylsulfonamido)cyclopentanecarboxyamido)adamantane-1-carboxyamide], the concentration for half-maximal inhibition (IC50) at human 11β-HSD1 was determined as 0.014 µM; against mouse 11β-HSD1, 0.038 µM.

As to `CC(C)(NS(=O)(=O)Cc1ccccc1[N+](=O)[O-])C(=O)NC1C2CC3CC(C2)CC1C3` (centres unmarked) [compound 22, N-(adamantane-2-yl)-2-methyl-2-((2-nitrophenyl)methylsulfonamido)propanamide], the IC50 was 0.033 µM against human 11β-HSD1 and 1.06 µM on mouse 11β-HSD1.

Regarding `CC(C)(NS(=O)(=O)c1ccccc1F)C(=O)NC1C2CC3CC(C2)CC1C3` (centres unmarked) [compound 16, N-(adamantane-2-yl)-2-methyl-2-(2-fluorophenylsulfonamido)propanamide], the figures for the half-inhibitory concentration (IC50) against human 11β-HSD1 and against mouse 11β-HSD1 were 0.034 µM and 0.255 µM, respectively.
